Source: patent US20250114361A1, “PYRAZOLOPYRIMIDINE COMPOUND AND PHARMACEUTICAL USE THEREOF” (Japan Tobacco Inc., priority 2022, published 2025)

molecular target: NLRP3 inflammasome (Homo sapiens (Human), UniProt Q96P20); assay: NLRP3 inflammasome inhibitory activity: inhibition of IL-1β production in THP1-Null cells (PMA, LPS, Nigericin); format: cell-based; details: Nigericin 7.5 μmol/L
Protocol: The NLRP3 inflammasome inhibitory activity of test compounds were evaluated on the basis of the inhibitory activity of the IL-1β production in THP1-Null cells (Product Number: thp-null, InvivoGen). Cells were maintained for culture in RPMI-1640 media containing 10% (v/v) fetal bovine serum, 25 mmol/L HEPES, 100 U/mL penicillin, 100 μg/mL streptomycin, 100 μg/mL normocin, and 200 μg/mL hygromycin B (set at 37° C., 5% CO2/95% air).
Cells were suspended with media for assay containing 0.5 μmol/L PMA (RPMI-1640 media containing 10% (v/v) fetal bovine serum, 100 U/mL penicillin, and 100 μg/mL streptomycin), and the suspended cells were seeded on Corning (registered trademark) 384-well Flat Clear Bottom Black Polystyrene TC-treated Microplates (25,000 cells/25 μL/well), followed by incubation (set at 37° C., 5% CO2/95% air) overnight. The supernatant of the culture was removed, and thereto was added media for assay (25 μL/well) containing 1 μg/mL Lipopolysaccharides (Product Number: L2654, Sigma-Aldrich (registered trademark)). Then, the culture was further incubated for 3 hours (set at 37° C., 5% CO2/95% air). The supernatant of the culture was removed. Then, a vehicle solution prepared from Opti-MEM (trademark) medium (Product Number: 31985-070, Invitrogen) was added to blank-setting wells and control-setting wells (20 μL/well), followed by incubation for 15 minutes (set at 37° C., 5% CO2/95% air). A solution containing a test compound (20 μL/well) was added to test compound-setting wells. Further, Opti-MEM (trademark) medium containing Nigericin (Product Number: N7143, Sigma-Aldrich (registered trademark)) was added to the control-setting wells and test compound-setting wells (5 μL/well), followed by incubation for 1.5 hours (set at 37° C., 5% CO2/95% air). The final concentration of Nigericin was adjusted to be 7.5 μmol/L. 5 μL/well of Opti-MEM (trademark) medium was added to the blank-setting wells. The supernatant of the culture was cryonically stored (set at −20° C.) until measurement of IL-1β.
The amount of IL-1β in the culture supernatant was quantitated with AlphaLISA (registered trademark) Human IL-1β Detection Kit (Product Number: AL220C, Perkin Elmer). Fluorescence intensity was measured with a microplate reader EnSpier (Model number: 2300-00J, Perkin Elmer) or EnSight (Model number: HH34000000, Perkin Elmer) according to procedure manuals attached thereto. Inhibition rates of the test compound-setting wells were calculated on the basis of 100% for the blank-setting wells and 0% for the control-setting wells. IC50 values (i.e., 50% inhibitory concentrations) of the test compounds were calculated by logistic regression analysis.

Sequence of NLRP3 inflammasome (Q96P20 whole entry): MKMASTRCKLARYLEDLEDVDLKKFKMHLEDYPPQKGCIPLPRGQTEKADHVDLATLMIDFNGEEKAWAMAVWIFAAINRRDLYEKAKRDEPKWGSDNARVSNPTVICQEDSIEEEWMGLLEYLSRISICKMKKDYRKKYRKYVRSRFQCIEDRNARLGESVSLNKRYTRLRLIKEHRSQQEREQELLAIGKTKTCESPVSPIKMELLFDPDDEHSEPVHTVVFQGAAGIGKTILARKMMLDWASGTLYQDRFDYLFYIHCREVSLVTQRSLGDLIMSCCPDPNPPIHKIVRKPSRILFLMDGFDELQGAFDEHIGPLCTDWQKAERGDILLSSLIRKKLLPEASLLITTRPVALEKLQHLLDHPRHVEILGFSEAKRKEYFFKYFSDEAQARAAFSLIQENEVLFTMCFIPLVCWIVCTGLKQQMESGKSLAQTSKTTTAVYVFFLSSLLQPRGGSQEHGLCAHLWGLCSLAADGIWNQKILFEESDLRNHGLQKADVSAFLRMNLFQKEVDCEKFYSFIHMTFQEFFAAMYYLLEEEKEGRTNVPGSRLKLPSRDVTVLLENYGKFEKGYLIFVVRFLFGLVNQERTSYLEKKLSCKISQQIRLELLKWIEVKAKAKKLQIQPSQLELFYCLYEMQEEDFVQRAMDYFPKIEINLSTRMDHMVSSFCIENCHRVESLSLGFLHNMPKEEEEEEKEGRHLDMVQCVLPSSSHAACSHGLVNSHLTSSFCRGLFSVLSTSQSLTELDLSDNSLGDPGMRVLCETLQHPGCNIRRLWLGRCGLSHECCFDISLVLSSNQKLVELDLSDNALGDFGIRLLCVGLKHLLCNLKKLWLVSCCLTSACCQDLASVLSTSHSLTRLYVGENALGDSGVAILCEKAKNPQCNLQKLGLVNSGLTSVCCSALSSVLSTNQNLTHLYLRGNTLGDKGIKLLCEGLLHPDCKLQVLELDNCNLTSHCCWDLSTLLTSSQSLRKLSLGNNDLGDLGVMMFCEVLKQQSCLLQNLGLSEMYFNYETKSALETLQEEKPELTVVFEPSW

| SMILES | IC50 [nM] |
| --- | --- |
| COc1cc(C)c(-n2cc3c(=O)[nH]c(-c4cnn(C)c4)nc3n2)c(C)c1 [Example 3] | 110 |
| Cc1cc(C2CC2)cc(C)c1-n1cc2c(=O)[nH]c(-c3ccn(C4COC4)n3)nc2n1 [Example 19] | 62 |
| Cc1nnc(-c2nc3nn(-c4c(C)cc(Br)cc4C)cc3c(=O)[nH]2)o1 [Example 14] | 390 |
| Cc1cc(C2CC2)cc(C)c1-n1cc2c(=O)[nH]c(-c3ccn(C)n3)nc2n1 [Example 4, 2-(4-cyclopropyl-2,6-dimethylphenyl)-6-(1-methyl-1H-pyrazol-3-yl)-2,5-dihydro-4H-pyrazolo[3,4-d]pyrimidin-4-one] | 15 |
| Cc1cc(Br)cc(C)c1-n1cc2c(=O)[nH]c(-c3cnn(C)c3)nc2n1 [Example 11] | 18 |
| Cc1cc(C2CC2)cc(C)c1-n1cc2c(=O)[nH]c(-c3ccnnc3)nc2n1 [Example 28] | 11 |
| Cc1cc(Br)cc(C)c1-n1cc2c(=O)[nH]c(-c3ccn(C)n3)nc2n1 [Example 10] | 20 |
| Cc1cc(C2CC2)cc(C)c1-n1cc2c(=O)[nH]c(-c3ccnn3C)nc2n1 [Example 5] | 23 |
| Cc1cc(OC(F)F)cc(C)c1-n1cc2c(=O)[nH]c(-c3ccn(C)n3)nc2n1 [Example 9] | 49 |
| Cc1cn(C)nc1-c1nc2nn(-c3c(C)cc(C4CC4)cc3C)cc2c(=O)[nH]1 [Example 6] | 50 |
| Cc1cc(Br)cc(C)c1-n1cc2c(=O)[nH]c(-c3cccnn3)nc2n1 [Example 23] | 22 |
| COc1cc(C)c(-n2cc3c(=O)[nH]c(-c4ccn(C)n4)nc3n2)c(C)c1 [Example 2] | 64 |
| Cc1cc(-c2nc3nn(-c4c(C)cc(Br)cc4C)cc3c(=O)[nH]2)no1 [Example 25] | 15 |
| Cc1cc(Br)cc(C)c1-n1cc2c(=O)[nH]c(-c3cnccn3)nc2n1 [Example 22] | 68 |
| Cc1cc(C2CC2)cc(C)c1-n1cc2c(=O)[nH]c(-c3cn(C)nn3)nc2n1 [Example 26] | 12 |
| COCCn1ccc(-c2nc3nn(-c4c(C)cc(Br)cc4C)cc3c(=O)[nH]2)n1 [Example 16] | 47 |
| Cc1cc(OC(F)F)cc(C)c1-n1cc2c(=O)[nH]c(-c3cccnn3)nc2n1 [Example 27] | 62 |
| Cc1cc(Br)cc(C)c1-n1cc2c(=O)[nH]c(-c3cn(C)nn3)nc2n1 [Example 21] | 13 |
| Cc1ccccc1-n1cc2c(=O)[nH]c(-c3ccn(C)n3)nc2n1 [Example 1] | 3800 |
| Cc1cc(C(C)(F)F)cc(C)c1-n1cc2c(=O)[nH]c(-c3ccn(C)n3)nc2n1 [Example 8, 2-{4-(1,1-difluoroethyl)-2,6-dimethylphenyl}-6-(1-methyl-1H-pyrazol-3-yl)-2,5-dihydro-4H-pyrazolo[3,4-d]pyrimidin-4-one] | 33 |
| Cc1cc(Br)cc(C)c1-n1cc2c(=O)[nH]c(-c3ccncn3)nc2n1 [Example 12, 2-(4-bromo-2,6-dimethylphenyl)-6-(pyrimidine-4-yl)-2,5-dihydro-4H-pyrazolo[3,4-d]pyrimidin-4-one] | 7.8 |
| COCCn1ccc(-c2nc3nn(-c4c(C)cc(C5CC5)cc4C)cc3c(=O)[nH]2)n1 [Example 20] | 23 |
| Cc1cc(C2CC2)cc(C)c1-n1cc2c(=O)[nH]c(-c3ccn(C(F)F)n3)nc2n1 [Example 18] | 55 |
| Cc1cc(Br)cc(C)c1-n1cc2c(=O)[nH]c(-c3ccnnc3)nc2n1 [Example 15] | 15 |
| Cc1cc(C2CC2)cc(C)c1-n1cc2c(=O)[nH]c(-c3cc[nH]n3)nc2n1 [Example 13] | 29 |
| Cc1ncc(-c2nc3nn(-c4c(C)cc(Br)cc4C)cc3c(=O)[nH]2)o1 [Example 24] | 53 |
| COCCn1nccc1-c1nc2nn(-c3c(C)cc(Br)cc3C)cc2c(=O)[nH]1 [Example 17] | 220 |

Now from value to molecule:

| IC50 [nM] | SMILES |
| --- | --- |
| 40 | Cc1cc(C(C)(F)F)cc(C)c1-n1cc2c(=O)[nH]c(-c3cn(C)cn3)nc2n1 [Example 41, 2-{4-(1,1-difluoroethyl)-2,6-dimethylphenyl}-6-(1-methyl-1H-imidazol-4-yl)-2,5-dihydro-4H-pyrazolo[3,4-d]pyrimidin-4-one] |
| 6 | Cc1csc(-c2nc3nn(-c4c(C)cc(C5CC5)cc4C)cc3c(=O)[nH]2)n1 [Example 50] |
| 390 | Cc1cc(C(C)(F)F)cc(C)c1-n1cc2c(=O)[nH]c(-c3nc[nH]n3)nc2n1 [Example 60] |
| 24 | Cc1cc(C2CC2)cc(C)c1-n1cc2c(=O)[nH]c(-c3cc4n(n3)CCCO4)nc2n1 [Example 55] |
| 16 | Cc1cc(C2CC2)cc(C)c1-n1cc2c(=O)[nH]c(-c3ccncc3F)nc2n1 [Example 36] |
| 84 | Cn1ccc(-c2nc3nn(-c4cc5c(cc4Cl)OCCC5)cc3c(=O)[nH]2)n1 [Example 56] |
| 9 | Cc1cc(C2CC2)cc(C)c1-n1cc2c(=O)[nH]c(-c3cc4n(n3)CCOC4)nc2n1 [Example 54] |
| 2.5 | Cc1cc(I)cc(C)c1-n1cc2c(=O)[nH]c(-c3ccn(C)n3)nc2n1 [Example 48] |
| 940 | Cc1cc(Br)cc(C)c1-n1cc2c(=O)[nH]c(-c3cc(C(F)(F)F)ncn3)nc2n1 [Example 31] |
| 37 | Cc1cc(C2CC2)cc(CO)c1-n1cc2c(=O)[nH]c(-c3ccn(C)n3)nc2n1 [Example 49] |
| 4.3 | Cc1cc(C2CC2)cc(C)c1-n1cc2c(=O)[nH]c(-c3ccncn3)nc2n1 [Example 43] |
| 15 | Cc1cc(C2CC2)cc(C)c1-n1cc2c(=O)[nH]c(-c3nn(C)cc3F)nc2n1 [Example 38] |
| 27 | COc1nccc(-c2nc3nn(-c4c(C)cc(Br)cc4C)cc3c(=O)[nH]2)n1 [Example 34] |
| 240 | Cc1cc(C2CC2)cc(C)c1-n1cc2c(=O)[nH]c(-c3cnn4c3OCCC4)nc2n1 [Example 53] |
| 24 | Cc1cc(Br)cc(C)c1-n1cc2c(=O)[nH]c(-c3ccncc3F)nc2n1 [Example 35] |
| 3.1 | Cc1cc(C2(F)CC2)cc(C)c1-n1cc2c(=O)[nH]c(-c3ccn(C)n3)nc2n1 [Example 46] |
| 23 | Cc1cc(C2CC2)cc(C)c1-n1cc2c(=O)[nH]c(-c3cn(C)cn3)nc2n1 [Example 39, 2-(4-cyclopropyl-2,6-dimethylphenyl)-6-(1-methyl-1H-imidazol-4-yl)-2,5-dihydro-4H-pyrazolo[3,4-d]pyrimidin-4-one] |
| 36 | Cc1cc(Br)cc(C)c1-n1cc2c(=O)[nH]c(-c3nn(C)cc3F)nc2n1 [Example 37] |
| 40 | CCn1ccc(-c2nc3nn(-c4c(C)cc(Br)cc4C)cc3c(=O)[nH]2)n1 [Example 30] |
| 22 | Cc1cc(C(F)(F)F)cc(C)c1-n1cc2c(=O)[nH]c(-c3ccncc3F)nc2n1 [Example 33] |
| 34 | Cn1ccc(-c2nc3nn(-c4cc5c(cc4Cl)CCC5)cc3c(=O)[nH]2)n1 [Example 59, 2-(6-chloro-2,3-dihydro-1H-inden-5-yl)-6-(1-methyl-1H-pyrazol-3-yl)-2,5-dihydro-4H-pyrazolo[3,4-d]pyrimidin-4-one] |
| 2 | Cc1cc(C2CC2)cc(C)c1-n1cc2c(=O)[nH]c(-c3cscn3)nc2n1 [Example 52] |
| 3 | Cc1cc(C(C)(F)F)cc(C)c1-n1cc2c(=O)[nH]c(-c3cscn3)nc2n1 [Example 58] |
| 6.3 | COCc1cc(C2CC2)cc(C)c1-n1cc2c(=O)[nH]c(-c3ccn(C)n3)nc2n1 [Example 40] |
| 14 | Cc1cc(C(C)(F)F)cc(C)c1-n1cc2c(=O)[nH]c(-c3ccncn3)nc2n1 [Example 42] |
| 6.7 | Cc1cc(C2CC2)cc(C)c1-n1cc2c(=O)[nH]c(-c3cnn(C)c3)nc2n1 [Example 47] |
| 880 | Cc1cccc(C)c1-n1cc2c(=O)[nH]c(-c3ccn(C)n3)nc2n1 [Example 44] |
| 69 | Cc1cc(C(F)(F)F)cc(C)c1-n1cc2c(=O)[nH]c(-c3ccn(C)n3)nc2n1 [Example 29] |
| 77 | Cc1cc(Br)cc(C)c1-n1cc2c(=O)[nH]c(-c3ccnc(C(F)(F)F)n3)nc2n1 [Example 32] |
| 9 | Cc1cc(C2CC2)cc(C)c1-n1cc2c(=O)[nH]c(-c3cc4n(n3)CCC4)nc2n1 [Example 57] |

same assay, conditions: at 0.3 μM

| inhibition at 0.3 µM [%] | SMILES |
| --- | --- |
| 35 | Cc1cc(C2(O)CC2)cc(C)c1-n1cc2c(=O)[nH]c(-c3ccn(C)n3)nc2n1 [Example 51] |

same assay, conditions: at 2.4 μM

| inhibition at 2.4 µM [%] | SMILES |
| --- | --- |
| 34 | Cc1cc(C2(F)CC2(Cl)Cl)cc(C)c1-n1cc2c(=O)[nH]c(-c3ccn(C)n3)nc2n1 (racemic) [Example 45] |
